Marks after values point to notes of the source that are not given here.
Tested on: red table grapes
Experiment: Grape color in Color Index units for Red Grapes (CIRG) after application to grape plants
Assay type: in vivo, Vitis vinifera
Details: 500 ppm
Description: Control of coloration by means of OGAs determines a new use of these polymers which ensure a controlled ripening and effective coloring, which provide a high quality in table grapes. OGAs were obtained by enzymatic hydrolysis of polygalacturonic acid (PGA), stopping the reaction by heating to 100° C. for 30 minutes. Partial purification was performed by using an ultra-filtration equipment to recover OGAs in the range of 5-10 KDa. For the comparison of the degree of polymerization of 7-20 GP, these were compared with external standards. OGAs were frozen using liquid nitrogen in order to obtain a powdered mixture, which was applied to grape plants in a particular proportion. Six treatments were used: three using different concentrations of OGAs, methyl jasmonate (MeJa), Ethrel and a control (water).
To determine the best way to control the red color in grapes, a series of experiments was performed, wherein doses of the mixture, application times, application conditions, and periods of application were tested, finding that the results are obtained: when the mixture was applied in an amount of 0.25 L per plant during the morning at a temperature of 18-20° C. for a period of two days during the veraison period.

| Structure (SMILES) | grape color (CIRG) (1 day post-application) | grape color (CIRG) (5 days post-application) | grape color (CIRG) (10 days post-application) | grape color (CIRG) (15 days post-application) | grape color (CIRG) (20 days post-application) |
| --- | --- | --- | --- | --- | --- |
| O=P(O)(O)CCCl [Ethrel, 2-chloroethyl phosphonic acid] | 1.17^a CIRG | 2.44^a CIRG | 2.96^a CIRG | 3.37^a CIRG | 3.76^a CIRG |
| CC/C=C\CC1C(=O)CCC1CC(=O)OC (stereo not shown) [MeJa, methyl jasmonate] | 1.13^a CIRG | 2.20^a CIRG | 3.41^a CIRG | 3.20^a CIRG | 3.31^b CIRG |
